The text below walks through data of ChEMBL document CHEMBL1201862, “PubChem BioAssay data set” (2004).

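The compound was tested at five concentrations on cells cultured in 96-well plates, with a 48-hour exposure period. GI50 is the concentration that inhibits growth by half.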 Activity calls are given as the source filed them. No stated cut-off is given here; in the data, active = GI50 up to about 1.1 µM and inactive = higher. Where only a bound is given, the exact number is not on record here.

Some test systems named below: CAKI-1; COLO 205; DMS-273; HL-60; HT-29; K562; KM-20L2; M19-MEL; NCI-H23; OVCAR-3; OVCAR-8; SN12C; SW-620; UACC-62; HCT-116; SNB-78; BT-549; MCF7; MDA-MB-435; MDA-N.
Holding throughout (test): NCI-60 cell line screen, 48 h

With `N#CC(C#N)=C1NN=C(Cl)c2ccccc21`, the GI50 was > 100 µM (inactive) with CAKI-1; > 100 µM (inactive) with COLO 205; > 100 µM (inactive) in the assay with DMS-273; 43.2 µM (inactive) with HL-60; > 100 µM (inactive) in the assay on HT-29; > 100 µM (inactive) with K562. Further, the GI50 was > 100 µM (inactive) with KM-20L2; > 100 µM (inactive) in the assay with M19-MEL; 59.4 µM (inactive) with NCI-H23; > 100 µM (inactive) in the assay with OVCAR-3; > 100 µM (inactive) in the assay on OVCAR-8; 96.4 µM (inactive) in the assay on SN12C. The figures for the GI50 with SW-620 and in the assay with UACC-62 were > 100 µM (inactive) and 70.5 µM (inactive), respectively.

Turning to `CC1CC(=O)Nc2ccc(Cl)cc2N1C(=O)CN1CCC(CCCCN(C)C)CC1` (configuration not stated), the GI50 in the assay on CAKI-1, in the assay on COLO 205, in the assay with DMS-273, in the assay on HCT-116, in the assay on HL-60 and with HT-29 was > 100 µM (inactive) throughout. In addition, the GI50 in the assay on K562 is 80 µM (inactive); in the assay with KM-20L2, 43.2 µM (inactive); with NCI-H23 it was > 100 µM (inactive); in the assay with OVCAR-3, > 100 µM (inactive); in the assay on OVCAR-8, > 100 µM (inactive); with SN12C, > 100 µM (inactive). The GI50 in the assay with SW-620 and in the assay with UACC-62 was > 100 µM (inactive) throughout.

Regarding `Cn1c(CCC#N)nc2ccc(Br)cc2c1=O`, the GI50 with CAKI-1, in the assay on COLO 205, with HL-60, in the assay on HT-29, in the assay on K562 and in the assay on KM-20L2 was > 100 µM (inactive) in each case. For the same molecule, the GI50 in the assay with NCI-H23 was 41.7 µM (inactive); with OVCAR-8 it was > 100 µM (inactive); in the assay on SN12C it was > 100 µM (inactive); with SW-620, > 100 µM (inactive); with UACC-62, > 100 µM (inactive).

In the case of `COC(=O)C(=O)C1(CCC(C)=O)c2ccccc2-c2ccccc21`, the GI50 in the assay on CAKI-1 is 35.2 µM (inactive); in the assay with COLO 205 it was 76.9 µM (inactive); in the assay with DMS-273, 43.6 µM (inactive); with HCT-116, 43.6 µM (inactive); with HL-60, 35.5 µM (inactive); in the assay with HT-29 it was 79.8 µM (inactive). Moreover, the GI50 is 44.5 µM (inactive) in the assay with K562; > 100 µM (inactive) in the assay on KM-20L2; > 100 µM (inactive) in the assay on M19-MEL; 63.2 µM (inactive) with NCI-H23; 44.6 µM (inactive) in the assay on OVCAR-3; 99.8 µM (inactive) in the assay with OVCAR-8. The GI50 in the assay with SN12C was > 100 µM (inactive); with SW-620, > 100 µM (inactive); with UACC-62 it was 97.7 µM (inactive).

Consider `CN(C)c1ccc(/C=C/C(=O)c2ccccc2)cc1Br`, for which the GI50 with CAKI-1 was 16.3 µM (inactive); in the assay with COLO 205, 18.3 µM (inactive); in the assay on HT-29, 19.7 µM (inactive); in the assay with K562 it was 20.6 µM (inactive); in the assay on KM-20L2, 25.1 µM (inactive); in the assay on M19-MEL, 18.7 µM (inactive). In addition, the GI50 was 16.5 µM (inactive) in the assay with NCI-H23; 17.8 µM (inactive) in the assay on OVCAR-3; 23.2 µM (inactive) in the assay on OVCAR-8; 21.1 µM (inactive) in the assay on SN12C; 19.9 µM (inactive) in the assay with SW-620; 16.5 µM (inactive) with UACC-62.

Regarding `COC(=O)C(CC=O)C(=O)C(=O)Nc1cccc(C(F)(F)F)c1` (configuration not stated), the GI50 with CAKI-1, in the assay with HCT-116, in the assay with HL-60, in the assay on HT-29, in the assay on K562 and in the assay with KM-20L2 was > 100 µM (inactive) throughout. Besides, the GI50 in the assay on M19-MEL, in the assay with NCI-H23, with OVCAR-3, in the assay on OVCAR-8, with SN12C and with SNB-78 was > 100 µM (inactive) throughout. For the same molecule, the GI50 with SW-620 and in the assay with UACC-62 was > 100 µM (inactive) each time.

`CCCN(CCCCN1C(=O)c2ccccc2C1=O)CC1COc2ccccc2O1` (configuration not stated): the GI50 in the assay with BT-549 is > 100 µM (inactive); in the assay with CAKI-1, > 100 µM (inactive); in the assay on COLO 205 it was 50.1 µM (inactive); in the assay with HCT-116, 59.4 µM (inactive); in the assay on HL-60 it was 14.1 µM (inactive); in the assay with HT-29 it was 33.6 µM (inactive). Besides, the GI50 in the assay with K562 is 42.1 µM (inactive); in the assay with MCF7 it was 53.1 µM (inactive); with MDA-MB-435, > 100 µM (inactive); with MDA-N, > 100 µM (inactive); with NCI-H23, 55.3 µM (inactive); in the assay on OVCAR-3, > 100 µM (inactive). The GI50 in the assay with OVCAR-8, in the assay on SN12C, in the assay with SW-620 and in the assay on UACC-62 was > 100 µM (inactive) each time.

With `N#CC(NC12CC3CC(CC(C3)C1)C2)c1ccccc1` (configuration not stated), the GI50 with BT-549, with CAKI-1, with COLO 205, with HCT-116, in the assay with HL-60 and with HT-29 was > 100 µM (inactive) throughout. In addition, the GI50 in the assay on K562, with MCF7, with MDA-MB-435, with MDA-N, in the assay on NCI-H23 and with OVCAR-3 was > 100 µM (inactive) in each case. Moreover, the GI50 in the assay on OVCAR-8, with SN12C, with SW-620 and in the assay with UACC-62 was > 100 µM (inactive) each time.

As to `Nc1ccn(C=C=CCO)c(=O)n1`, the GI50 is > 100 µM (inactive) in the assay with BT-549; > 100 µM (inactive) with CAKI-1; > 100 µM (inactive) in the assay with COLO 205; > 100 µM (inactive) in the assay on HCT-116; 48.9 µM (inactive) in the assay on HL-60; > 100 µM (inactive) in the assay with HT-29. Besides, the GI50 with K562, in the assay on MCF7, in the assay with MDA-MB-435, with MDA-N, with NCI-H23 and in the assay with OVCAR-3 was > 100 µM (inactive) each time. In addition, the GI50 was 229 µM (inactive) in the assay with OVCAR-8, > 100 µM (inactive) with SN12C, > 100 µM (inactive) in the assay on SW-620 and > 100 µM (inactive) with UACC-62.

As to `CC(=O)Oc1ccccc1C(=O)O` [ASPIRIN], the GI50 in the assay with BT-549, in the assay on CAKI-1, in the assay on COLO 205, in the assay with HCT-116, in the assay with HL-60 and in the assay with HT-29 was > 100 µM (inactive) throughout. Further, the GI50 in the assay with K562, in the assay with MCF7, in the assay with MDA-MB-435, in the assay with MDA-N, in the assay with NCI-H23 and with OVCAR-3 was > 100 µM (inactive) throughout. Besides, the GI50 in the assay with OVCAR-8, with SN12C, with SW-620 and in the assay with UACC-62 was > 100 µM (inactive) throughout.

Regarding `C/C(=N\NC(=S)NCc1ccccc1)c1nc2cccnc2[nH]1`, the GI50 is 6.12 µM (inactive) with BT-549; 6.52 µM (inactive) in the assay on CAKI-1; 14.5 µM (inactive) in the assay with COLO 205; 3.69 µM (inactive) with HCT-116; 3.71 µM (inactive) with HL-60; 3.48 µM (inactive) with HT-29. Besides, the GI50 is 5.35 µM (inactive) in the assay on K562; 3.53 µM (inactive) with MCF7; 12.4 µM (inactive) in the assay on MDA-MB-435; 11.3 µM (inactive) in the assay with MDA-N; 12.8 µM (inactive) in the assay with NCI-H23; 11.1 µM (inactive) in the assay on OVCAR-3. Besides, the GI50 was 10.1 µM (inactive) with OVCAR-8, 15.7 µM (inactive) in the assay on SN12C, 9.66 µM (inactive) in the assay on SW-620 and 6.53 µM (inactive) in the assay with UACC-62.

Turning to `Oc1cc(Br)cc2cc(Br)cnc12`, the GI50 was 4.58 µM (inactive) with BT-549; 8.55 µM (inactive) with CAKI-1; 32.3 µM (inactive) with COLO 205; 2.11 µM (inactive) in the assay on HCT-116; 0.22 µM (active) in the assay with HL-60; 27.5 µM (inactive) in the assay on HT-29. For the same molecule, the GI50 was 1.21 µM (inactive) in the assay on K562; 5.35 µM (inactive) in the assay on MCF7; 3.44 µM (inactive) with MDA-MB-435; 5.37 µM (inactive) in the assay with MDA-N; 4.95 µM (inactive) with NCI-H23; 1.58 µM (inactive) in the assay on OVCAR-3. The GI50 in the assay with OVCAR-8 was 2.96 µM (inactive); in the assay on SN12C, 3.62 µM (inactive); in the assay with SW-620 it was 2.24 µM (inactive); with UACC-62, 2.05 µM (inactive).

Turning to `O=C(c1ccccc1)c1ccc2nc3n(c2c1)C(c1c(F)cccc1F)SC3` (configuration not stated), the GI50 in the assay with BT-549 is 17.3 µM (inactive); with CAKI-1 it was 5.13 µM (inactive); in the assay on COLO 205, 4 µM (inactive); in the assay on HCT-116 it was 3.26 µM (inactive); in the assay on HL-60 it was 2.03 µM (inactive); in the assay on HT-29, 4.93 µM (inactive). The GI50 with K562 was 3.31 µM (inactive); with MCF7, 3.85 µM (inactive); in the assay with MDA-MB-435 it was 1.45 µM (inactive); with MDA-N, 1.34 µM (inactive); in the assay with NCI-H23 it was 9.4 µM (inactive); in the assay with OVCAR-3, 4.9 µM (inactive). Further, the GI50 in the assay on OVCAR-8 was 9.33 µM (inactive); in the assay on SN12C, 7.69 µM (inactive); in the assay with SW-620, 3.18 µM (inactive); with UACC-62, 4.47 µM (inactive).
